Laboratory results as given in patent publication US10532088B2, “Adoptive cellular therapy using an agonist of retinoic acid receptor-related orphan receptor gamma and related therapeutic methods” (Lycera Corporation, priority 2014, dated 2020).

Experiments:
Gal4-RORγ-LBD = target: T1, Gal4-RORγ-LBD (Homo sapiens, UniProt P51449); assay: Gal4-RORγ Luciferase Reporter Assay in HEK-293T Cells; type: cell-based
T1 construct: expressed in transfected cells
T1 sequence (P51449 269-508 limits assumed): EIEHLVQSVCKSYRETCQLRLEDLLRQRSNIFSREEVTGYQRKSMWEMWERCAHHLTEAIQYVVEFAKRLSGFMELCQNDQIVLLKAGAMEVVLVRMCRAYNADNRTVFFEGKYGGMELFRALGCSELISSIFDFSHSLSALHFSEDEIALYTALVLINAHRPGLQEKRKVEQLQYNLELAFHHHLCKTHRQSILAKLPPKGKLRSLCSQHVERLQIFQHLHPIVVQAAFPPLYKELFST
Description: In the following protocol, HEK-293 cells were transfected with a construct comprising the Gal4 DNA binding domain fused to the ligand binding domain of RORγ (Gal4-RORγ-LBD) in a pcDNA3.1neo plasmid, and also with a reporter construct comprising pGL4.31 Gal4-luciferase (Promega). Control cells were prepared similarly using empty pcDNA3.1neo and pGL4.31 vectors.
Trans-IT reagent (Mirus, 60 μL) at room temperature was added drop wise to OptiMEM (Invitrogen, 1.5 ml). This reagent mixture was mixed by inversion then incubated for 5 to 30 minutes at room temperature. It then was added to a solution of both expression vectors (5 μg each), mixed, and incubated at room temperature for about 20 minutes. HEK-293 cells were harvested from incubation flasks by removing the media, treating with TrypLE Express (Invitrogen), and incubating until the cells detached from the bottom of the flask (approximately 2-5 minutes). […]
The cells were harvested as described above, counted, and centrifuged to obtain the desired number of cells, then re-suspended in complete growth media at 0.75×10^6 cells/mL. […] The luciferase intensity was read on an Envision plate reader (Perkin Elmer). […] The Max Response is the upper plateau in the signal as determined by line-fit using a 4-parameter logistic model in PRISM (GraphPad).

RORγ-LBD = target: T2, RORγ-LBD (Homo sapiens, UniProt P51449); assay: RORγ-Ligand Binding Domain (LBD) TR-FRET Assay; type: biochemical
T2 construct: HIS-tagged RORγ-LBD protein was expressed in SF9 cells using a baculovirus expression system; made in house; host or cells: SF9 insect cells, baculovirus; lysate used
T2 sequence (P51449 269-508 limits assumed): T1 sequence (P51449 269-508 limits assumed)
Description: HIS-tagged RORγ-LBD protein was expressed in SF9 cells using a baculovirus expression system. The lysate was diluted in assay buffer (50 mM Tris pH 7.0, 50 mM KCl, 1 mM EDTA, 0.1 mM DTT, 0.01% BSA) to obtain RORγ-LBD final concentration of ˜3 nM in a 384-well assay plate (need to titrate for each batch of protein).
A stock of biotinylated-LXXLL peptide from coactivator SRC1 (Biotin-[…]) was prepared in assay buffer and added to each well (200 nM final concentration). […] RORγ antagonist ursolic acid was also included at a final concentration of 2 μM. Compounds were diluted in DMSO and further diluted in assay buffer with a final DMSO concentration at 1%.

EG7 tumors = assay: Adoptive transfer of Tc17 cells treated ex vivo with RORγ agonist to mice bearing EG7 tumors; type: in vivo; conditions: Tc17 cells exposed ex vivo to compound at 10 μM; FIG. 1 Part A
Description: EG7 cells (EL4 cells with OVA expression) were grown in RPMI 1640 medium (Invitrogen)/10% heat-inactivated FBS (Hyclone), penicillin-streptomycin, and 50 mM β-mercaptoethanol (Invitrogen); harvested; washed with phosphate-buffered saline (PBS); and then implanted at 1×10^6 cells/mouse in PBS into the flank of mice subcutaneously. Implanted tumor cells grow into visible tumor in about one week. Mice are provided food and water ab libitum throughout the duration of the experiment.
Three to five days after tumor cell transplantation, Tc17 differentiation culture is set up. […]
When a tumor becomes visible, tumor volume is assessed by caliper measurement of the length and width and tumor volume is calculated (0.5×(length×(width)^2). When the tumor becomes visible in most mice (typically 7-10 days after implantation), mice are randomized by tumor volume (tumor volume is <500 mm^3) and divided into three groups. Differentiated Tc17 cells (with or without RORγ agonist) are counted, washed with phosphate buffered saline (PBS), and then the cells are injected into tumor-bearing mice at 5×10^6 cells/mouse intraperitoneally or intravenously using a PBS carrier to deliver the cells. […]
After T cell transfer, tumor volume was assessed every 2 to 3 days. In studies where survival is assessed, mice that are alive and have tumor volume smaller than 3000 mm^3 are considered survivors.

## C[C@H]1CN(S(=O)(=O)c2cccc(C(F)(F)F)c2)c2cc(COc3c(F)cccc3Cl)ccc2O1 [Compound 1]
Gal4-RORγ-LBD; HEK-293 cells, 2 μM ursolic acid
  EC50: 500 to 5000 nM
Gal4-RORγ-LBD; upper plateau, luciferase signal in absence of ursolic acid or test compound defined at 100
  Gal4-RORγ Assay Average Max Response: ** (a value in the range of greater than 90 to 150)
RORγ-LBD; in presence of 2 μM RORγ antagonist ursolic acid
  EC50: < 500 nM
RORγ-LBD; upper plateau, signal in absence of ursolic acid or test compound set as 100
  TR-FRET Assay Average Max Response: **** (a value greater than 200)
EG7 tumors
  change in tumor volume over time, p vs. DMSO treated Tc17 cells: < 0.004
